Laboratory results reported in patent US9988607B2, “Artificial three-dimensional microenvironment niche culture and methods of using the same” (priority 2008, dated 2018).

Legend:
Format in all cases: cell-based, human
HDF cells = test: ViPS pluripotency factor replacement: chemical induction of iPS colonies in 3D microenvironment niche culture; conditions: HDF in 3D ES cell microenvironment niche culture; preliminary
Description: To test the possibility of chemical induction of pluripotency in human dermal fibroblasts, well known compounds affecting these pluripotency factors were substituted for expression of the pluripotency factors from viral expression vectors. Candidate compounds included those that affect the Wnt pathway because activation of this pathway had been reported to be involved in OCT 3/4, Sox-2, and Nanog activation. The initial compounds tested included: BIO (6-bromoindirubin-3′-oxime), a specific pharmacological inhibitor of glycogen synthase kinase known to stimulate Wnt signaling and maintain pluripotency in human and mouse embryonic stem cells (Sato et al., Nat. Med. (2004) 10:55-63); prostaglandin E2 (PGE2), reported to be an activator of Wnt pathway via “cross talk” at the beta-catenin signal level; valproic acid, a histone deacetylase (HDAC) inhibitor, and Wnt pathway activator (Bug et al. (2005) Cancer Res 65:2537-41). […] These compounds were chosen for further experimentation since their mechanism of activity was previously determined and they appeared to activate the pluripotency signal transduction pathway (e.g. Wnt pathway).
Compounds were added to HDF cells grown in 3D ES cell microenvironment niche cultures (prepared as described above in EXAMPLES 1 and 2), to evaluate whether they would rescue iPS phenotype in the absence of individual pluripotency factors introduced retrovirally. ViPS cells, induced with lentiviral transduction of pluripotency factor genes (OCT4, Sox2, Nanog, Klf4) as described by Takahashi et al. ((2007), Cell 131:1-12). Data is presented as the number of colonies with iPS morphology observed per 100,000 host cells.
Stem cell self renewal optimized 3-D hydrogel ES microenvironment niche conditions (as described in EXAMPLEs 1 and 2) were found necessary for chemical induction of iPS state. Pluripotency was not observed when standard tissue culture plates or those coated with Matrigel or methylcellulose were substituted for the 3D microenvironment conditions.

[1] = system: OCT3/4, SOX2, LIN28, KLF4 promoters; test: Promoter-GFP reporter screen of compound library in HDF cells in 3D hyaluronan hydrogel niche culture; conditions: for Activation of expression of one or more of the target promoters: GFP fluorescence after 4 days of incubation, normalized to ViPS control; for Optimized Concentration: empirically determined through repeat experiments with a broad range of concentrations
Procedure: (§1) Replicate microspots were prepared in Complete Media and transfected with reporter constructs for genes critically expressed in pluripotent cells. The reporter constructs contained promoter regions of one of the genes listed in Table 6 operably linked to a green fluorescent protein (GFP) coding region in pGlow TOPO TA (Invitrogen).
(§2) Briefly, a transient transfection mixture containing Lipofectamine 2000 (0.4 μl/24 μl total hyaluronan volume, Invitrogen) and promoter-Green Fluorescent Protein (GFP) construct in (500 ng) was added to each microspot.
(§3) Library screening was performed by including dilution series of each compound in mTeSR-1 medium, to HDF cells embedded in 3D hyaluronan hydrogel microenvironment niche culture optimized as described above in EXAMPLES 1 and 2.
(§4) After 4 days of incubation with target compounds, relative fluorescence from expression of the GFP constructs was recorded using a fluorescent microplate reader. Values were normalized to reflect percent fluorescence of control (ViPS) cells.
Compounds that activated expression of one or more of the target promoters were scored as positive.

SOX2 promoter = test: Promoter-GFP reporter screen in HDF cells, SOX2 promoter; conditions: FIG. 7
Procedure: as §1, §2, §3, §4

OCT4 promoter = test: Promoter-GFP reporter screen in HDF cells, OCT4 promoter; conditions: FIG. 7
Procedure: as §1, §2, §3, §4

Row | Compound | Replacement of virally transduced pluripotency factors (colonies with iPS morphology per 100,000 host cells) (HDF cells) | Activation of expression of one or more of the target promoters [1] | Optimized Concentration [1] | Expression of SOX2 promoter (SOX2 promoter) | Expression of OCT4 promoter (OCT4 promoter)
1 | CCCCC[C@H](O)/C=C/[C@H]1[C@H](O)CC(=O)[C@@H]1C/C=C\CCCC(=O)O [D2-6542, Prostaglandin E2] | could be used to replace virally transduced pluripotency factors | positive | 10 µM | – | –
2 | O=C1Nc2ccc([N+](=O)[O-])cc2C1=C1Nc2ccccc2C1=NO [D3-8976, Indirubin-5-nitro-3′-oxime] | – | positive | 4 µM | – | –
3 | O=C1Nc2cc(Br)ccc2/C1=C1/Nc2ccccc2/C1=N\O [D9-6452, 6-bromoindirubin-3′-oxime] | could be used to replace virally transduced pluripotency factors | positive | 4 µM | – | –
4 | CCCCC[C@H](O)/C=C/[C@H]1C(=O)C=C[C@@H]1C/C=C\CCCC(=O)O [D9-9811, Prostaglandin J2] | could be used to replace virally transduced pluripotency factors | positive | 10 µM | – | –
5 | CCCC(CCC)C(=O)O [D10-8976, Valproic Acid] | could be used to replace virally transduced pluripotency factors | positive | 2000 µM | stimulate expression | stimulate expression
6 | Br.Cc1ccc(C(=O)Cn2c3c(sc2=N)CCCC3)cc1 [D12-2234, 1-(4-Methylphenyl)-2-(4,5,6,7-tetrahydro-2-imino-3(2H)-benzothiazolyl)ethanone HBr] | – | positive | 30 µM | – | –
7 | Cc1cccc(-c2n[nH]cc2-c2ccc3ncccc3n2)n1 [D21-8765, 2-(3-(6-Methylpyridin-2-yl)-1H-pyrazol-4-yl)-1,5-naphthyridine] | – | positive | 25000 µM | – | –
